Assay results published in ChEMBL document CHEMBL1141746, “Three new diterpenes from the marine soft coral Lobophytum crassum” (1998).
Active and inactive are the calls of the source. The calls are words filed in the database; no cut-off is given here.

How the values were obtained:
[1] = biological target: Tyrosine-protein kinase Lck (Homo sapiens) (UniProt P06239); assay: Inhibition of tyrosine kinase lckp56 by ELISA
[2] = biological target: Human immunodeficiency virus type 1 reverse transcriptase (Human immunodeficiency virus 1) (UniProt Q72547); assay: Inhibition of HIV1 reverse transcriptase by ELISA
[3] = test system: Microbotryum violaceum; assay: Antimicrobial activity against Ustilago violacea at 50 ug by agar plate diffusion assay; assay type: functional; conditions: read-out: IZ
[4] = test system: [Chlorella] fusca; assay: Antimicrobial activity against Chlorella fusca at 50 ug by agar plate diffusion assay; assay type: functional; conditions: Scenedesmus fuscus; read-out: IZ

Tyrosine-protein kinase Lck (Homo sapiens), sequence (P06239 2-509 limits assumed): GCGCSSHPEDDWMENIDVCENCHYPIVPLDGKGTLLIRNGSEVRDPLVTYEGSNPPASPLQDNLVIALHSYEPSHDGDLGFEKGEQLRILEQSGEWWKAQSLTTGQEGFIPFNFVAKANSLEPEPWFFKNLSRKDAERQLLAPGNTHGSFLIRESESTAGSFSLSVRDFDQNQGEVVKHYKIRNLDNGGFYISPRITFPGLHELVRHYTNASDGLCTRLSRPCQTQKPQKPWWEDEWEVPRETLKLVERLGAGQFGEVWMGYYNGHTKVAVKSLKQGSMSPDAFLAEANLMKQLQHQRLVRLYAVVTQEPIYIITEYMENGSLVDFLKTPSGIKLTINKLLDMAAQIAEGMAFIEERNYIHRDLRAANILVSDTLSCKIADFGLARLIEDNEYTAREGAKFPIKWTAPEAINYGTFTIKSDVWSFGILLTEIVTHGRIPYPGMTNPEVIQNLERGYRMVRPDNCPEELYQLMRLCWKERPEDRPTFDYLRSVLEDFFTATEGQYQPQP

Activity [1]	Activity [2]	Structure (SMILES)	zone of inhibition at 50 µg/disc [3]	zone of inhibition at 50 µg/disc [4]
inactive	inactive	COC(=O)C(C)/C1=C/C=C(\C)CC[C@H]2O[C@]2(C)CC/C=C(\C)CC1 (some centres not stated)	1 mm	
inactive	inactive	CC1=C2CC/C(C)=C/CC[C@@]3(C)O[C@H]3CC/C(C)=C/[C@@H]2OC1	3 mm	3 mm
